Where a name gives a salt, the structure may show the parent alone.
How the values were obtained:
[1] = Acute toxicity, intraperitoneal (Test Example 3); details: mouse, in vivo, ip, female mice, in dimethyl sulfoxide, observed for 7 days
Method: Test animal: female ICR-CRJ: CD-1 mice, 5 weeks old, body weight 29 to 32 g
LD50 was calculated according to the Richfield-Wilcockson method (Pharmacological Tests, p 200-205, Nanzando, 1967).

[2] = tested on: guinea pig papillary muscle; experiment: Contractive force of extirpated guinea pig papillary muscle preparation (Test Example 1); details: Cavia porcellus; 10^-3 M; relative to 10^-7 M Isoproterenol (positive control) as 100%; read-out: Increase in contractive force
Method: Test animal: guinea-pigs Method of Experiment: extirpated guinea pig papillary muscle preparation. Male albino guinea pigs having body weights of 300 to 500 g were stunned by a blow on the head. The hearts were quickly extirpated and the papillary muscles of the right ventricle were dissected out in cold bathing solution (2° to 4° C.), and were suspended in a 10 ml organ bath for recording isometric contractions. The bathing solution was the Krebs-Henseleit solution (32°±0.5° C.) and was continuously bubbled with a mixed gas composed of 95% O2 and 5% CO2. The papillary muscle preparation were stimulated by square wave pulses of 1 msec duration at the frequency of 1 Hz and at voltages of 20% above the threshold supplied by a square-wave pulse stimulator via a pair of the silver plate electrodes in which the preparations were placed. The isometric contraction was measured by a force-displacement transducer connected to a carrier-amplifier. The test solution was prepared by dissolving the sodium salt into distilled water or dissolving the free acid into Krebs-Henseleit solution. […] The results are shown as relative values (%), taking the result given by a reaction using 10^-7 M Isoproterenol (positive control) as 100%.

heart-lung preparation = experiment: Cardiotonic activity on heart-lung preparation, acute heart failure induced by Pentobarbital (Test Example 2); parameters: species or system dog; details: for Change in Heart rate / Decrease in right atrium pressure / Increase in systemic output: versus nonadministration group
Method: Test animal: Crossbred adult dogs (female and male) Method of Experiment: cardiotonic activity on heart-lung preparation. Using female and male crossbred dogs having body weights of 9 to 10 kg anesthetized with Pentobarbital, heart-lung preparations were prepared in the usual way, on which systemic output, right atrium pressure and heart rate were measured. […] Regarding the control (no administration group), the results express the values after administration of Pentobarbital.

heart = details: literature; result in words; cited from earlier work

Structure (SMILES): O=P1(O)OC[C@H]2O[C@@H](n3cnc4c(NCc5ccccc5)ncnc43)[C@H](O)[C@@H]2O1 [N^6 --Benzyl-C--AMP Na]
- LD50 at 168 h [1]: 383 mg/kg
- activation at 1000 µM [2]: 91.7%

Structure (SMILES): CCCCNc1ncnc2c1ncn2[C@@H]1O[C@@H]2COP(=O)(O)O[C@H]2[C@H]1O [N^6 --Butyl-C--AMP]
- LD50 at 168 h [1]: 350 mg/kg
- activation at 1000 µM [2]: 71%

Structure (SMILES): O=P1(O)OC[C@H]2O[C@@H](n3cnc4c(NCc5ccco5)ncnc43)[C@H](O)[C@@H]2O1 [N^6 --Furfuryl-C--AMP Na]
- LD50 at 168 h [1]: 483 mg/kg
- activation at 1000 µM [2]: 93.2%

Structure (SMILES): CCCCCCCNc1ncnc2c1ncn2[C@@H]1O[C@@H]2COP(=O)(O)O[C@H]2[C@H]1O [N^6 --Heptyl-C--AMP, N^6-heptyladenosine-3',5'-cyclic phosphate]
- LD50 at 168 h [1]: 174 mg/kg
- activation at 1000 µM [2]: 94.1%
- acute heart failure state induced by Pentobarbital (heart-lung preparation; 10 mg or 30 mg, result in words): remarkably improved

Structure (SMILES): CC(C)CNc1ncnc2c1ncn2[C@@H]1O[C@@H]2COP(=O)(O)O[C@H]2[C@H]1O [N^6 --Isobutyl-C--AMP]
- activation at 1000 µM [2]: 24%

Structure (SMILES): CCCCCCCCCNc1ncnc2c1ncn2[C@@H]1O[C@@H]2COP(=O)(O)O[C@H]2[C@H]1O [N^6 --Nonyl-C--AMP Na]
- LD50 at 168 h [1]: 150 mg/kg
- activation at 1000 µM [2]: 49.5%

Structure (SMILES): CCCCCNc1ncnc2c1ncn2[C@@H]1O[C@@H]2COP(=O)(O)O[C@H]2[C@H]1O [N^6 --Pentyl-C--AMP]
- activation at 1000 µM [2]: 98%

Structure (SMILES): CCCC(=O)Nc1ncnc2c1ncn2[C@@H]1O[C@@H]2COP(=O)(O)O[C@H]2[C@H]1OC(=O)CCC [N^6,2'-O-dibutyryl C-AMP]
- myocardial contractility (heart): have a mycocardial contractile effect

Structure (SMILES): CCCCCCCNc1ncnc2c1ncn2[C@@H]1O[C@@H]2COP(=O)(O)O[C@H]2[C@H]1O [sodium salt of N^6-heptyl-adenosine-3',5'-cyclic phosphate]
- Heart rate (heart-lung preparation; 10 mg): 112 beats/min.
- Right atrium pressure (heart-lung preparation; 10 mg): 96.9 mm H2 O
- Systemic output (heart-lung preparation; 10 mg): 409 ml/min./100 g heart
- Change in Heart rate (heart-lung preparation; 10 mg): 2 beats/min.
- Decrease in right atrium pressure (heart-lung preparation; 10 mg): 12.1 mm H2 O
- Increase in systemic output (heart-lung preparation; 10 mg): 150 ml/min./100 g heart
- Heart rate (heart-lung preparation; 30 mg): 120 beats/min.
- Right atrium pressure (heart-lung preparation; 30 mg): 68.3 mm H2 O
- Systemic output (heart-lung preparation; 30 mg): 610 ml/min./100 g heart
- Change in Heart rate (heart-lung preparation; 30 mg): 10 beats/min.
- Decrease in right atrium pressure (heart-lung preparation; 30 mg): 40.7 mm H2 O
- Increase in systemic output (heart-lung preparation; 30 mg): 351 ml/min./100 g heart
